Experimental data as given in patent US4513008A, “Virucidal compositions and therapy” (The Vinoxen Company, Inc., priority 1982, dated 1985).

How the values were obtained:
herpes virus type 2 = experiment: Guinea pig bioassay: intravaginal HSV-2 infection, topical treatment; type: in vivo; set-up: key to MVL Score Day 5 / MVL Score Day 6 / MVL Score Day 7 / MVL Score Day: lesion severity scored on 0 to 4 scale; details: for MVL Scores Days 5-8: 0 to 4 scale; for Infected, Treated Surv/Total: 28 days; for MVL Score Day: last day; for reduction in lesion scores, in words: guinea pigs, topical
Description: In both studies, DHA was compared with ACV in a controlled study for effectiveness in reducing the occurrence and the severity of lesions resulting from infection by HSV-2 and in reducing mortality resulting from the virus infection.
Using substantially the procedures of Pancic et al., loc. cit., the topical activity of DHA, a representative and preferred virucide for use in the present method, was evaluated in mice and in guinea pigs. Both evaluations included comparative testing against ACV and the mouse tests included a comparison of two different vehicles.
A blind comparative test was carried out on guinea pigs using coded substances labeled A through D. The testers were told only that one of the four substances was ACV, that the other three coded samples were the same material, in concentrations of 0.1, 1.0 and 10 mg/ml, and that all four samples were formulated in a polyethylene glycol 1000 (PEG-1000) vehicle. A separate sample of the PEG-1000 was also submitted to serve as a placebo for treating virus control animals. The materials and experimental protocol is shown below.
Animals. Female Hartley strain albino guinea pigs weighing about 450-500 g were used. The animals were quarantined 24 hr prior to use in this study, and maintained 5 to a 32"×32"×9" stainless steel cage on Wayne guinea pig diet and water ad libitum.
Virus. Strain E194 of herpes virus type 2 was used. […] The virus was held at -90° C. until used.
(§1) Drugs. The substances tested consisted of four bottles labelled "A", "B", "C", and "D" with no identifying key. The samples were: A, 0.1 mg/ml DHA (0.003 mmol/ml); B, 5% w/w ACV (0.22 mmol/ml); C, 1 mg/ml DHA (0.03 mmol/ml); and D, 10 mg/ml DHA ([…]). […] All were treated as light-sensitive compounds.
Experimental Protocol. The guinea pigs were infected by applying a virus-soaked swab intravaginally, with agitation, for 20 seconds. […] Treatment began 20 hr later, with the compound or placebo applied topically intravaginally, perivaginally, and perianally using cotton swabs soaked in the respective substance. Treatment continued three times daily (8 a.m., noon, 4 p.m.) for 7 days. Ten infected animals were used for each coded substance, with twenty used for virus controls. Five sham-infected animals were concomitantly treated with each coded substance to serve as toxicity controls. Two guinea pigs were held separately to serve as normal untreated controls.
On days 5 through 8 post-virus inoculation, the genital area was carefully examined and signs of irritation in the toxicity controls and lesion severity in injected animals was scored on a 0 to 4 scale using the same scale as in the mouse bioassay. The results were scored as average daily lesion (ADL) scores for each group, and as mean vaginal lesion (MVL) scores, calculated as the mean of the ADL scores for days 5-8. The maximum mean score for the toxicity control animals was also determined.
On day 6 prior to the 8 a.m. treatment, intravaginal and perivaginal areas of each infected guinea pig were uniformly swabbed with sterile cotton swabs. The swab for each animal was placed in 1.0 ml of sterile Eagles minimum essential medium and immediately frozen at -90° C.; several days later all were thawed and each swab-containing sample vortexed for 15 seconds and then the sample was diluted through a series of 10-fold dilutions in sterile medium. Each dilution was assayed for virus in triplicate by adding 0.1 ml to an established monolayer of MA-104 cells in 96-well disposable plastic microplates. The plates were sealed, incubated at 72 hr at 37° C., and virus-induced cytopathic effect noted microscopically.
Data Analysis. Increases in survivors were analyzed using chi square analysis with Yate's correction. Mean survival times (MST) of animals dying on or before […] were determined for each group, and evaluated using the t test.

[1] = Guinea pig toxicity controls (sham-infected, topical treatment); type: in vivo, guinea pigs; details: for Toxicity Controls Max. Irrit. Score: 0 to 4 scale
Description: as §1
Experimental Protocol. The guinea pigs were infected by applying a virus-soaked swab intravaginally, with agitation, for 20 seconds. Toxicity control animals were similar pretreated using swabs soaked in sterile Puck's balanced salt solution. Treatment began 20 hr later, with the compound or placebo applied topically intravaginally, perivaginally, and perianally using cotton swabs soaked in the respective substance. Treatment continued three times daily (8 a.m., noon, 4 p.m.) for 7 days. Ten infected animals were used for each coded substance, with twenty used for virus controls. Five sham-infected animals were concomitantly treated with each coded substance to serve as toxicity controls. Two guinea pigs were held separately to serve as normal untreated controls.
Each animal was observed daily for survival for a total of 28 days. On days 5 through 8 post-virus inoculation, the genital area was carefully examined and signs of irritation in the toxicity controls and lesion severity in injected animals was scored on a 0 to 4 scale using the same scale as in the mouse bioassay. The results were scored as average daily lesion (ADL) scores for each group, and as mean vaginal lesion (MVL) scores, calculated as the mean of the ADL scores for days 5-8. The maximum mean score for the toxicity control animals was also determined.

[2] = C: 1 mg/ml DHA in PEG-1000, P < 0.05
[3] = D: 10 mg/ml DHA in PEG-1000, P < 0.05

## CCC=CCC=CCC=CCC=CCC=CCC=CCCC(=O)O [DHA, 4,7,10,13,16,19 Docosahexaenoic Acid]
Herpes virus type 2; A: 0.1 mg/ml DHA in PEG-1000
  MST (mean survival time): 12.3 days
  MVL Score Day 5: 2.4
  MVL Score Day 6: 3.0
  MVL Score Day 7: 3.5
  MVL Scores Days 5-8: 3.2
  Infected, Treated Surv/Total: 6/10
  MVL Score Day: 3.8
Herpes virus type 2; C: 1 mg/ml DHA in PEG-1000
  MST (mean survival time): 13.3 days
  MVL Score Day 5: 1.7
  MVL Score Day 7: 2.8
  Infected, Treated Surv/Total: 4/10
  MVL Score Day: 3.1
Herpes virus type 2; [2]
  MVL Scores Days 5-8: 2.4
  MVL Score Day 6: 2.3
Herpes virus type 2; D: 10 mg/ml DHA in PEG-1000
  MST (mean survival time): 16.5 days
  MVL Score Day 7: 3.0
  Infected, Treated Surv/Total: 8/10
  MVL Score Day: 3.1
Herpes virus type 2; [3]
  MVL Scores Days 5-8: 2.4
  MVL Score Day 5: 1.5
  MVL Score Day 6: 2.1
Herpes virus type 2
  reduction in lesion scores, in words: neither ACV nor the lowest dosage of DHA were able to achieve a statistically significant reduction in lesion scores
Herpes virus type 2; listed as C
  reduction in lesion scores, in words: statistically significant reductions in lesion scores
Herpes virus type 2; listed as D
  reduction in lesion scores, in words: statistically significant reductions in lesion scores
[1]; A: 0.1 mg/ml DHA in PEG-1000
  Toxicity Controls Surv/Total: 5/5
  Toxicity Controls Max. Irrit. Score: 0.0
[1]; C: 1 mg/ml DHA in PEG-1000
  Toxicity Controls Surv/Total: 5/5
  Toxicity Controls Max. Irrit. Score: 0.0
[1]; D: 10 mg/ml DHA in PEG-1000
  Toxicity Controls Surv/Total: 5/5
  Toxicity Controls Max. Irrit. Score: 0.0
